Reference: patent publication US8198335B2, “Cosmetic material” (Parahermosa Co., Ltd., priority 2009, dated 2012)

Legend:
[1] = Check for precipitation of crystal in 1:1 mixtures of oil solution and diethyl amino hydroxy benzoyl hexyl benzoate kept at 5° C.; format: physicochemical; set-up: key to Evaluation results 1 week / Evaluation results Following day / Evaluation results Same day: X: Evaluation results accompanied by an x in Table 2 indicate that crystal had precipitated at the applicable point in time; settings: for Evaluation results 6 months / Evaluation results Following day / Evaluation results Same day / Evaluation results 1 week: 1:1 by mass with diethyl amino hydroxy benzoyl hexyl benzoate, kept at 5° C.; for Evaluation results 6 months: checked after six months; for Evaluation results Following day: checked after one day; for Evaluation results Same day: heated to 80° C., cooled, checked after half a day; for Evaluation results 1 week: checked after one week
Text: Evaluation results accompanied by an x in Table 2 indicate that crystal had precipitated at the applicable point in time.

[2] = cited from earlier work
[3] = Low-temperature behaviour of octyl hydroxy stearate monomer and oligomers (clouding point, liquid state); format: physicochemical
Text: A monomer of octyl hydroxy stearate has problems in terms of stable dissolution of poorly soluble substances, while an octamer and above lead to poor self-condensing property of 12-hydroxy stearate and result in a broad distribution of molecular weight, which in turn causes unstable quality, solidification at temperatures below zero, and undesirable touch and other tactile senstations. For example, a monomer of octyl hydroxy stearate is a low-viscosity oil which is non-sticky and has a clean touch and also offers excellent oxidization stability. However, its clouding point is high, or at approx. 20° C., and thus crystal generates in the solution or the entire formulation solidifies in winter, resulting in markedly lower feeling of use and other problems such as the formulation not coming out of the container due to an increased viscosity. An octamer has similar problems. A dimer of octyl hydroxy stearate is structurally a monomer with one more molecule unit. However, it has substantially different chemical properties.

Molecule: Octyl hydroxyl stearate oligomer (tetramer) [Component 3]
- Evaluation results 6 months [1]: ◯

Molecule: CCCCC(CC)C(=O)OCC(CC)(CO)COCC(CC)(COC(=O)C(CC)CCCC)COC(=O)C(CC)CCCC (centres unmarked) [Component 44, Ditrimethylol propane triethyl hexanoate]
- Evaluation results Following day [1]: X

Molecule: CCCCC(CC)C(=O)OCC(COC(=O)C(CC)CCCC)OC(=O)C(CC)CCCC (centres unmarked) [Component 21, Glycerin tri 2-ethyl hexanoate]
- Evaluation results Following day [1]: X

Molecule: CCCCCCCCCCC(CCCCCCCC)COC(=O)C(C)O (centres unmarked) [Component 52, Octyl dodecyl lactate]
- Evaluation results Following day [1]: X

Molecule: Octyl hydroxyl stearate oligomer (heptamer) [Component 6]
- Evaluation results 6 months [1]: ◯

Molecule: CCCCCCCCOCCCCCCCC [Component 58, Dioctyl ether]
- Evaluation results Following day [1]: X

Molecule: CCCCCCCCCCC(CO)CCCCCCCC (centres unmarked) [Component 29, Octyl dodecanol]
- Evaluation results Following day [1]: X

Molecule: CCCCCCCCCCCCCCCCOC(=O)C(CC)CCCC (centres unmarked) [Component 19, Cetyl ethyl hexanoate]
- Evaluation results Following day [1]: X

Molecule: CCO [Component 18, Ethanol (99%)]
- Evaluation results Following day [1]: X

Molecule: CCCCCCOC(=O)c1ccccc1C(=O)c1ccc(N(CC)CC)cc1O [diethyl amino hydroxy benzoyl hexyl benzoate]
- dissolves in 2-ethyl hexyl para-methoxy cinnamate ([2]; solvent 2-ethyl hexyl para-methoxy cinnamate): 42%
- dissolves in cyclomethicone ([2]; solvent cyclomethicone (volatile silicone)): 0.4%
- dissolves in octyl para-methoxy cinnamate ([2]; solvent octyl para-methoxy cinnamate): up to 42 percent by mass

Molecule: CC(O)CCO (centres unmarked) [Component 32, 1,3-BG]
- Evaluation results Following day [1]: X

Molecule: CC(C)CCCCCCCCCCOC(=O)CCCCCC(C)C [Component 17, Isotridecyl isononanate]
- Evaluation results Following day [1]: X

Molecule: DPG [Component 22]
- Evaluation results Same day [1]: X
- Evaluation results Following day [1]: X

Molecule: CCCCCCCCCCCCCCCCCCO [Component 61, Stearyl alcohol]
- Evaluation results Same day [1]: X

Molecule: Sorbitan isostearate [Component 36]
- Evaluation results Following day [1]: X

Molecule: Diglyceryl tetraisostearate [Component 49]
- Evaluation results Following day [1]: X

Molecule: CCCCCCCC(=O)OCC(C)(C)COC(=O)CCCCCCC [Component 53, Neopentyl glycol dicaprylate]
- Evaluation results Same day [1]: X

Molecule: CCCCCCCCOC(=O)OCCCCCCCC [Component 57, Dicapryl carbonate]
- Evaluation results Same day [1]: X

Molecule: Sorbitan sesquioleate [Component 35]
- Evaluation results Following day [1]: X

Molecule: CC(C)CCCC(C)CCCC(C)CCCCC(C)CCCC(C)CCCC(C)C (centres unmarked) [Component 26, Squalane]
- Evaluation results Same day [1]: X

Molecule: CCCCCCC(O)CCCCCCCCCCC(=O)OCC(CC)CCCC (centres unmarked) [Component 16, Octyl hydroxyl stearate (monomer)]
- Evaluation results 1 week [1]: X
- precipitation of crystal / stability of the 1:1 mixture, in words ([1]; summary of Table 2, 5° C.): crystal precipitated after one week
- clouding point [3]: approx. 20 °C

Molecule: OCC(O)CO [Component 31, Glycerin]
- Evaluation results Same day [1]: X

Molecule: CCCCC(CC)C(=O)OCC(C)(C)COC(=O)C(CC)CCCC (centres unmarked) [Component 51, Neopentyl glycol diethyl hexanoate]
- Evaluation results Following day [1]: X

Molecule: CCCCCCCCCCCCCCCC(=O)OCC(CC)CCCC (centres unmarked) [Component 20, Ethyl hexyl palmitate]
- Evaluation results Following day [1]: X

Molecule: CCCCCCCCCCCCCC(=O)OCC(CCCCCCCC)CCCCCCCCCC (centres unmarked) [Component 34, Octyl dodecyl myristate]
- Evaluation results Same day [1]: X

Molecule: CCCCC(CC)COC(=O)/C=C/c1ccc(OC)cc1 (centres unmarked) [Component 56, Ethyl hexyl para-methoxy cinnamate]
- Evaluation results 1 week [1]: X

Molecule: C12-15 alkyl benzoate [Component 62]
- Evaluation results Following day [1]: X

Molecule: Octyl hydroxyl stearate oligomer (hexamer) [Component 5]
- Evaluation results 6 months [1]: ◯

Molecule: CCCCC(CC)C(=O)OCC(COC(=O)C(CC)CCCC)OC(=O)C(CC)CCCC (centres unmarked) [Component 50, Triethyl hexanoin]
- Evaluation results Following day [1]: X

Molecule: CC(C)CCCCCCCCCCCCCCCOC(=O)CC(O)C(=O)OCCCCCCCCCCCCCCCC(C)C (centres unmarked) [Component 47, Diisostearyl malate]
- Evaluation results Following day [1]: X

Molecule: Glycerin tri (capryl/caprate) [Component 28]
- Evaluation results Following day [1]: X

Molecule: CC(C)CCCCCCOC(=O)CCCCCC(C)C [Component 25, Isononyl isononanate]
- Evaluation results Following day [1]: X

Molecule: Cyclomethicone [Component 64]
- Evaluation results Same day [1]: X

Molecule: COc1ccc(C(=O)c2ccccc2)c(O)c1 [Component 59, Benzophenone-3]
- Evaluation results Same day [1]: X

Molecule: Octyl hydroxyl stearate oligomer (dimmer) [Component 1]
- Evaluation results 6 months [1]: ◯
- state at 5° C. ([3]; 5° C.): remains permanently liquid

Molecule: CCCCCCCC(=O)OCC(C)OC(=O)CCCCCCC (centres unmarked) [Component 30, Propylene glycol dicaprylate]
- Evaluation results Following day [1]: X

Molecule: Octyl hydroxyl stearate oligomer (trimer) [Component 2]
- Evaluation results 6 months [1]: ◯

Molecule: CCCCCCCCCCCCCCCC(=O)OC(C)C [Component 33, Isopropyl palmitate]
- Evaluation results Same day [1]: X

Molecule: Octyl hydroxyl stearate oligomer (pentamer) [Component 4]
- Evaluation results 6 months [1]: ◯

Molecule: Ditrimethylol propane (isostearate/sebacate) [Component 46]
- Evaluation results Following day [1]: X

Molecule: Erythrityl triethyl hexanoate [Component 45]
- Evaluation results Following day [1]: X
